Experimental data: US7795203B2, “Method for topical treatment of eye disease and composition and device for said treatment” (priority 2002, dated 2010)
Where a SMILES comes first, the peptide text is derived from it.

Tests used:
[1] = molecular target: T1, carnosinase (Homo sapiens, UniProt Q96KN2); experiment: Hydrolysis with carnosinase; format: biochemical; settings: substrate of carnosinase similar to L-carnosine
T1 sequence (Q96KN2 27-507 limits assumed): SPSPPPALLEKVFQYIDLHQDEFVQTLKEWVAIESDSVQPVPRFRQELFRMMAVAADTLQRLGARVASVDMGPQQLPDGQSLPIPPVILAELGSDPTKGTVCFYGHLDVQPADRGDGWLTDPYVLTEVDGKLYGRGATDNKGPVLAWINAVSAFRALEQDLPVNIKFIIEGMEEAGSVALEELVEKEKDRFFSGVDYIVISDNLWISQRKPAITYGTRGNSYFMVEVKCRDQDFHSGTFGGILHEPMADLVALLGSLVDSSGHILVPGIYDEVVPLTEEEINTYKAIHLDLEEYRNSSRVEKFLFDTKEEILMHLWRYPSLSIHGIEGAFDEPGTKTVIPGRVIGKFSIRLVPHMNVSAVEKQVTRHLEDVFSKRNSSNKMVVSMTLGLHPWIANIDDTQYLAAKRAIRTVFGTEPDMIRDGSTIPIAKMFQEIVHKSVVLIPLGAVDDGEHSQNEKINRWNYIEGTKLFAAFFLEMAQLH
Method: (§1) Yet another advantage of the present invention is that systemic absorption of N-acetylcarnosine and/or carnosine is increased through the microvessels of the conjunctival and lid mucosal tissues because the cellulose compound increases the time of persistence of N-acetylcarnosine in the conjunctival sac. More particularly, N-acetylcarnosine appears in blood plasma within 30 min of its topical administration to the eye with carboxymethylcellulose. The half time of decay of N-acetylcarnosine in plasma is about 150 min or more according to pharmacokinetic studies. […] Accordingly, once in blood plasma N-acetylcarnosine can act as a competititve saturating inhibitor of carnosinase, which is very helpful to protect L-carnosine from hydrolysis during concomitant oral administration of L-carnosine as an anti-aging therapy.

[2] = Pharmacokinetic studies: N-acetylcarnosine in blood plasma after topical administration to the eye; format: in vivo
Method: as §1

[3] = Clinical study of 0.1% N-Acetyl-RGDS in patients with POAG and OH (IOP, tonography); format: in vivo, human; settings: 0.1% topically twice daily
Description: Without intending to be bound by theory, the inventor currently believes that RGD-containing peptides, and/or their pharmacologically acceptable salts, are efficacious for the therapeutical and surgical treatment of primary open-angle glaucoma (POAG) and ocular hypertension (OH). […] The effect of 0.1% N-Acetyl-RGDS on outflow facility, as studied by tonography, was striking providing a significant increase to 26-33%. The cleansing activity of Acetyl-RGDS is accompanied by increase in trabecular outflow facility which is different from that of other drugs (pilocarpine) previously shown in patients with POAG and OH. The clinical significance and mechanism of IOP reduction by N-Acetyl-RGDS are related with the cleansing effect of N-Acetyl-RGDS on extracellular matrix proteins and plaque material in trabecular meshwork to reduce the outflow resistance in the eyes of patients with POAG and OH. It is believed N-Acetyl-RGDS is also suitable to treat secondary cataracts and vitreoproliferative disorders.

Row | half time of decay in plasma ([2]; according to pharmacokinetic studies) [min] | time to appearance in blood plasma ([2]; topical administration to the eye with carboxymethylcellulose) [min] | SMILES | resistance to hydrolysis with carnosinase [1] | tolerability [3]
1 | ≥ 150 | ≤ 30 | CC(=O)NCCC(=O)N[C@@H](Cc1c[nH]cn1)C(=O)O [N-acetylcarnosine] | highly resistant to hydrolysis with carnosinase | 
2 |  |  | CC(=O)N[C@@H](CCCNC(=N)N)C(=O)NCC(=O)N[C@@H](CC(=O)O)C(=O)N[C@@H](CO)C(=O)O [N-Acetyl-RGDS, N-acetyl-Arg-Gly-Asp-Ser peptide] (Ac-RGDS-OH) |  | well tolerated
